Experimental data reported in PMC10901556, “Conservation of Affinity Rather Than Sequence Underlies a Dynamic Evolution of the Motif-Mediated p53/MDM2 Interaction in Ray-Finned Fishes” (Molecular Biology and Evolution, 2024).
Where “and” joins values, the source holds several entries; their conditions need not be identical. Equal values may be shown once. Read-outs that look alike come from different tables or passages of the source. Where no end group is shown, it is not given here.

Legend:
[1] = target: T1, D. rerio MDM2 (Danio rerio, UniProt O42354); assay: Isothermal titration calorimetry; assay type: binding; settings: 25 °C; for TΔS / ΔH / Kd: ITC
T1 construct: NusA-TEV-His6-PreScission site (N, cleaved yes); made in house; host or cells: Escherichia coli BL21 (DE3)
T1 sequence (O42354 with tags, fused parts or gaps): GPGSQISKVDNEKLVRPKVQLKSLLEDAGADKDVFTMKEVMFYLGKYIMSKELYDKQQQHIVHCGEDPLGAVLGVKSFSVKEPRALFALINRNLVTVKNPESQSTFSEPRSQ
Procedure: For ITC experiments, a MicroCal iTC200 instrument (GE Healthcare) was used, and the experiments were performed at 25 °C. The MDM2 protein and p53TAD peptides were dialyzed against the experimental buffer prior to experiments to avoid buffer mismatch. The concentration of D. rerio MDM2 in the cell was 11 μM and the concentration of p53TADD.rerio^17–32 and p53TADD.rerio^10–75 in the syringe was 118 and 116 μM, respectively. Results were analyzed using the built-in software and a 2-state binding model was assumed.

[2] = target: T2, MDM2D.rerio SWIB domain (Danio rerio, UniProt O42354); assay: Fluorescence polarization displacement assay; assay type: binding
T2 construct: NusA-TEV-His6-PreScission (N, cleaved yes); made in house; host or cells: Escherichia coli BL21 (DE3)
T2 sequence (O42354 with tags, fused parts or gaps): T1 sequence (O42354 with tags, fused parts or gaps)

[3] = target: T3, MDM2H.sapiens SWIB domain (Homo sapiens, UniProt Q00987); assay: Fluorescence polarization displacement assay; assay type: binding
T3 construct: NusA-TEV-His6-PreScission (N, cleaved yes); made in house; host or cells: Escherichia coli BL21 (DE3)
T3 sequence (Q00987 with tags, fused parts or gaps): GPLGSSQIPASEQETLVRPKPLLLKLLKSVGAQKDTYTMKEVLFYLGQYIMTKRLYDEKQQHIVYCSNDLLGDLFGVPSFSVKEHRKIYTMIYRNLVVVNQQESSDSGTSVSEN

[4] = target: human MDM2; settings: ref Åberg et al. (2018); read-out: KD (μM) p53TAD^full-length native (converted); cited from earlier work
Source text: Therefore, we expressed, purified, and subjected a longer p53TAD construct from D. rerio to binding experiments (Fig. 4a).

[5] = target: MDM2 SWIB domain, Maylandia zebra; assay: Fluorescence polarization displacement assay; assay type: binding; settings: for IC50 / Ki: M.zeb MDM2 2000 nM
MDM2 SWIB domain, Maylandia zebra, sequence (as listed by the source): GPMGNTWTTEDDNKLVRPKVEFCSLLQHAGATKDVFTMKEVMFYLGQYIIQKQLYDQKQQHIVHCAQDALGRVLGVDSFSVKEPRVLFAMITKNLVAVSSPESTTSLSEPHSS

[6] = target: T2, MDM2D.rerio SWIB domain; settings: ref Mihalič et al. 2023; cited from earlier work
Source text: Abstract The transcription factor and cell cycle regulator p53 is marked for degradation by the ubiquitin ligase MDM2. The interaction between these 2 proteins is mediated by a conserved binding motif in the disordered p53 transactivation domain (p53TAD) and the folded SWIB domain in MDM2. […] The interaction between the proteins is mediated by a conserved binding motif in the intrinsically disordered N-terminal transactivation domain (TAD) of p53 and a SWIB domain in MDM2 (Fig. 1). The interaction leads to MDM2-catalyzed ubiquitination and proteasomal degradation of p53. Phosphorylation of p53TAD increases affinity for the general transcriptional coactivators CBP/p300 a ...

[7] = target: MDM2 SWIB domain, Lepisosteus oculatus; assay: Fluorescence polarization displacement assay; assay type: binding
MDM2 SWIB domain, Lepisosteus oculatus, sequence (as listed by the source): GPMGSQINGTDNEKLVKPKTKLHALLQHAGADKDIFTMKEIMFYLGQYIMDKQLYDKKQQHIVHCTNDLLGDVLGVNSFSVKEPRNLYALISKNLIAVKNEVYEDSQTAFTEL

[8] = target: MDM2 SWIB domain, Channa argus; assay: Fluorescence polarization displacement assay; assay type: binding; settings: for IC50 / Ki: C.arg MDM2 1500 nM
MDM2 SWIB domain, Channa argus, sequence (as listed by the source): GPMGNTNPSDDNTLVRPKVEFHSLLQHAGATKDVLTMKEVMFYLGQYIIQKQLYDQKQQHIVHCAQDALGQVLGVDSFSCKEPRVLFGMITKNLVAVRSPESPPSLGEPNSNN

[9] = labeled probe 15 nM, replicate 1, read-out: IC50 [M] (IT)
[10] = labeled probe 15 nM, replicate 3, read-out: IC50 [M] (IT)
[11] = average of the replicates, probe 15 nM, Kd for probe […], read-out: Ki [nM] Average
[12] = average of the replicates, probe 15 nM, Kd for probe […], read-out: Ki [µM] Average
[13] = calculated from IC50, Kd for probe […], probe 15 nM, replicate 1, read-out: Ki
[14] = calculated from IC50, Kd for probe […], probe 15 nM, replicate 2, read-out: Ki
[15] = calculated from IC50, Kd for probe […], probe 15 nM, replicate 3, read-out: Ki
[16] = mean of the replicates, probe 15 nM, read-out: IC50 [nM], mean of the replicates

## Ac-EFAELWEKNLISIQP (N-terminus assumed) [D.rer p53 17-32 (G1K]
[1]; first replicate
  N (ITC stoichiometry): 0.74±0.01
  TΔS: 1.7 kcal/mol
  ΔH: -7.2 ± 0.1 kcal/mol
[1]; second replicate
  N (ITC stoichiometry): 0.76±0.01
  TΔS: 1.2 kcal/mol
  ΔH: -7.6 ± 0.1 kcal/mol

## GPMGMAQNDSQEFAELWEKNLISIQPPGGGSCWDIINDEEYLPGSFDPNFFGNVLEEQPQPSTLPPTST* [D.rer p53 P2 full, expressed whole TAD region of D. rerio p53]
[2]; FP displacement of FITC-p53TADhuman^15–26 (15 nM) from MDM2 (1 μM or 1.5 μM, both printed), KD from IC50, 20 mM sodium phosphate pH 7.4, 150 mM NaCl, 1 mM TCEP, read-out: KD
  Kd: 49 ± 8 nM
[2]; FP displacement, printed in nM (text, Fig. S4A), read-out: KD
  Kd: 49 nM
[2]; ratio of KD values, FP displacement
  fold higher affinity than p53TAD^15–27D.rerio: more than 70 fold
[2]; read-out: IC50 [M] (IT)
  IC50: 1.73e-06 M and 1.93e-06 M and 1.69e-06 M
[2]; read-out: IC50 [nM], mean of the replicates (cell without heading below the column)
  IC50: 1.78e-06 M
[2]; read-out: Ki
  Ki: 42.6 nM and 65.1 nM and 39.2 nM
[2]; read-out: Ki [nM] Average
  Ki: 49 nM
[2]; read-out: Ki [µM] Average
  Ki: 49 nM
[1]; first replicate
  N (ITC stoichiometry): 0.79±0.01
  TΔS: 1.7 kcal/mol
  ΔH: -7.8 ± 0.1 kcal/mol
[1]; second replicate
  N (ITC stoichiometry): 0.74±0.01
  TΔS: 2.0 kcal/mol
  ΔH: -7.6 ± 0.1 kcal/mol
[1]; MDM2 11 μM in the cell, approximate value
  Kd: ~100 nM
[1]; one of two replicates, the first printed for this construct in Fig. S5 (replicate number not assignable)
  Kd: 100 ± 20 nM
[1]; one of two replicates, the second printed for this construct in Fig. S5 (replicate number not assignable)
  Kd: 100 ± 10 nM

## Ac-SQEFAELWEKNL [D.rer p53 P2 short]
[3]
  IC50: 31800 nM
  Ki: 4330 nM
[2]
  IC50: 3.39e-05 M
  Kd: 3600 ± 300 nM

## H.sap p53 full: expressed full-length human p53 transactivation domain
[4]
  Kd: 0.1 µM

## GPMGMAEQGFEDLQLSQNLPFSQDSFKELWDQLPVAESLSVSLDTISAVNSSTTGHDETWRPDGTMDMFQLINDQQLAEHFDEKLFELPNDALPKDGVTPPAST [M.zeb p53 P1 full, expressed full-length zebra mbuna p53TAD paralog 1]
[5]; FP displacement of FITC-p53TADhuman^15–26 (15 nM) from MDM2 (2 μM), KD from IC50, 20 mM sodium phosphate pH 7.4, 150 mM NaCl, 1 mM TCEP
  Kd: 190 ± 20 nM
[5]; [9]
  IC50: 3.27e-06 M
[5]; labeled probe 15 nM, replicate 2, read-out: IC50 [M] (IT)
  IC50: 3.18e-06 M
[5]; [10]
  IC50: 2.72e-06 M
[5]; [11]
  Ki: 188 nM
[5]; [12]
  Ki: 190 nM
[5]; [13]
  Ki: 218 nM
[5]; [14]
  Ki: 206 nM
[5]; [15]
  Ki: 140 nM
[5]; [16]
  IC50: 3.06e-06 M

## p53TADD.rerio (residues 15 to 26): peptide corresponding to the conserved binding motif in p53TADD.rerio, earlier study (KNLIIQPPGGGS; UniProt P79734 15-26, looked up, fragment)
[6]
  affinity in binding assay: no affinity

## GPMGMADPEPEGLPLSQESFQELWNMVIVLHRAVPPENAQWPDLQSMLYTNELVPNAIDSLYEELEPHVSMPPQPMVSNPDGLAPSSST [L.ocu p53 full, expressed full-length spotted gar p53TAD]
[7]; FP displacement of FITC-p53TADhuman^15–26 (15 nM) from MDM2 (1 μM), KD from IC50, 20 mM sodium phosphate pH 7.4, 150 mM NaCl, 1 mM TCEP
  Kd: 85 ± 5 nM
[7]; equals the mean of the replicates, read-out: IC50 [nM], mean
  IC50: 2090 nM
[7]; mean of the replicates (n = 3 or 6), read-out: Ki [nM] Average
  Ki: 84.7 nM
[7]; mean of the replicates (n = 3 or 6), read-out: Ki [µM] Average
  Ki: 84.7 nM
[7]; replicate 1, MDM2 1000 nM, labeled probe 15 nM, read-out: IC50 [M] (IT)
  IC50: 2170 nM
[7]; replicate 1, calculated from IC50 with Kd for probe 78 nM, read-out: Ki
  Ki: 90.7 nM
[7]; replicate 2, MDM2 1000 nM, labeled probe 15 nM, read-out: IC50 [M] (IT)
  IC50: 2140 nM
[7]; replicate 2, calculated from IC50 with Kd for probe 78 nM, read-out: Ki
  Ki: 88.6 nM
[7]; replicate 3, MDM2 1000 nM, labeled probe 15 nM, read-out: IC50 [M] (IT)
  IC50: 1960 nM
[7]; replicate 3, calculated from IC50 with Kd for probe 78 nM, read-out: Ki
  Ki: 74.9 nM

## GSQNDSQEFAELWEKNLISIQPPGGGSCWDIINDEEYLPGSFDPN [D.rer p53 P2 longer]
[2]
  IC50: 1.64e-06 M

## GPMGMMEEQGFESLPLSQDSFRELWESVVTPSISTIPPAPEVPQDTMYMMLMNDQVLADGFDEKLFELPPESSTKDGVVPPSST [C.arg p53 P1 full, expressed full-length northern snakehead p53TAD paralog 1]
[8]; [9]
  IC50: 1.82e-06 M
[8]; labeled probe 15 nM, replicate 2, read-out: IC50
  IC50: 1.47e-06 M
[8]; [10]
  IC50: 1.52e-06 M
[8]; FP displacement of FITC-p53TADhuman^15–26 (15 nM) from MDM2 (1.5 μM), KD from IC50, 20 mM sodium phosphate pH 7.4, 150 mM NaCl, 1 mM TCEP
  Kd: 100 ± 30 nM
[8]; [11]
  Ki: 98.6 nM
[8]; [12]
  Ki: 98.6 nM
[8]; [13]
  Ki: 153 nM
[8]; [14]
  Ki: 65.5 nM
[8]; [15]
  Ki: 77.8 nM
[8]; [16]
  IC50: 1.6e-06 M
